The values that follow come from patent publication US9045490B2, “Use of parthenolide derivatives as antileukemic and cytotoxic agents” (University of Kentucky, priority 2003, dated 2015).

Series [1] deals with breast cancer cell line mdl-231. Nature of the series: Clonogenic assay. Type of series: cell-based. Conditions: mdl-231, 2 μm concentration (parthenolide: similar dosage ranges).
For series [2], the system named is radiation sensitive cell line A549. The series can be described thus: Radiation sensitisation by pretreatment, survival fraction. The series is classed as cell-based. As to conditions: A549, 2.5 micromolar pretreatment. The source says: The radiation sensitive cell line A549 was pretreated with parthenolide concentrations ranging from 0 to 2.5 micromolar. The cells were then subjected to ionizing radiation doses ranging from 0-6Gy and survival fraction of the cells determined. […] Cells not receiving pre-treatment with parthenolide had greater than 50% survival fraction at the highest radiation dose of 6Gy and over 90% survival at 2Gy.

The subject of series [3] is breast cancer cell line 436. Nature of the series: Clonogenic assay. Type of series: cell-based. Conditions: 436 cells, 2 μm concentration (parthenolide: similar dosage ranges).
For series [4], the system named is breast cancer cell line hbl-100. Nature of the series: Clonogenic assay. Type of series: cell-based. Conditions: hbl-100, 2 μm concentration (parthenolide: similar dosage ranges).
The subject of series [5] is Healthy human bone marrow cells. Nature of the series: Cytotoxicity to healthy bone marrow cells (same Annexin V/7-AAD assay). Conditions: 10 μM. Type of series: cell-based. How it is done:
(§1) For apoptosis analysis, one million primary acute myelogenous leukemia (AML) cells were washed with cold PBS and resuspended in 200 microliters of Annexin binding buffer (10 mM HEPES/NaOH pH 7.4; 140 mM NaCl; 2.5 mM CaCl2). Annexin V-FITC (Pharmingen) and 0.25 mg/mL 7-AAD (7-aminoactinomycin D, Molecular Probes, CA) were added and the tubes were incubated at room temperature in the dark for 15 minutes. Cells were then diluted with 200 microliters of Annexin binding buffer and analyzed immediately by flow cytometry. Viable cells were identified as failing to label with Annexin V or 7-AAD. Cells beginning to die label with Annexin V, and as membrane integrity is lost, will also label with 7-AAD. For each parthenolide derivative, the percentage of viable cells was determined after 24 hours of culture at a 10 micromolar concentration. Data are normalized to untreated control specimens. The data are in Table 1 for aminoparthenolide derivatives and Table 2 for the salts of some aminoparthenolides.
Healthy human bone marrow cells were used in the above assay to test the cytotoxicity of parthenolide. Eighty-five percent of the normal cells survived 10 μM of parthenolide. All the aminoparthenolides evaluated afforded results similar to parthenolide, i.e. the survival rate of healthy human bone marrow cells was over 85% at a concentration of 10 μM.

The nature of series [6]: Oral bioavailability in mice: plasma level by LC-MS. The series is classed as in vivo. As to conditions: mouse, 40 mg/kg oral, LC-MS, average of 5 mice, read-out: plasma level one hour after oral gavage. How it is done: Preliminary in vivo work was conducted to determine the bioavailability and toxicity of this agent in mice.
Series [7] deals with primary acute myelogenous leukemia (AML) cells. The series can be described thus: Assay for antileukemic activity (Annexin V/7-AAD apoptosis analysis by flow cytometry). Type of series: cell-based. Conditions: 10 μM, 24 hours of culture, normalized to untreated control. How it is done:
as §1, with “For each parthenolide derivative, the percentage of viable cells was determined after 24 hours of culture at a 10 micromolar concentration.” left out

The test system of series [8] is AML cells (AML stem cell compartment). The series can be described thus: Human-mouse xenograft: NOD/SCID engraftment of AML cells treated in vitro. Type of series: in vivo, human cells in NOD/SCID mice. Conditions: 7.5 micromolar in vitro for 12-18 hours, bone marrow analysed after 6-8 weeks (CD45). How it is done:
(§2) To assess the effect of parthenolide on primary human stem cell populations, experiments were conducted using transplantation into immune deficient NOD/SCID mice. […] For each experiment, cryopreserved mononuclear cell specimens from normal or AML donors were thawed, and treated in vitro with 7.5 micromolar parthenolide for 12-18 hours. Following culture, 5-10 million cells/animal were injected intravenously into sublethally irradiated (300 Rad) NOD/SCID mice. After 6-8 weeks, animals were sacrificed and bone marrow was analyzed for the presence of human cells using flow cytometry as previously described (Guzman et al., Proc Natl Acad Sci USA 2002; 99: 16220-162253). Human specific antibodies for CD45 were used to assess the level of total engraftment.

The test system of series [9] is hormone refractory prostate cancer cell line CWR22Rv1. Nature of the series: MTS-PMS cellular proliferation assay. The series is classed as cell-based. Conditions: at 5 μm, CWR22 MTS-PMS assay. How it is done: (§3) A 96-well U-bottomed plate (Becton Dickinson Labware, Franklin Lakes, N.J.) at a concentration of 5,000 cells per 50 microliters […] of media was incubated in 5% CO2 at 37° C. for 24 hours. Varying compound concentrations in […] of media were added to the media 24 hours later. Colorimetric readings were obtained using the MTS/PMS system and an ELISA plate reader, after 48 hours of exposure to DMAPT. The readings obtained for each concentration tested were from an average of eight wells. Each experiment was expressed as a percentage of the solvent control and completed at least three times with consistent results. The results presented are an average of three experiments. The hormone refractory prostate cancer cell line CWR22Rv1 was treated with increasing concentrations of parthenolide and DMAPT. for three hours Both parthenolide and DMAPT reduced cellular proliferation by 50% at 5 μm in the CWR22 MTS-PMS assay. Cellular proliferation was also measured in the MTS-PMS assay using four lung cancer cell lines treated with parthenolide and derivatives PIPT ((11S,11,13-dihydro,13-(piperidin-1-yl)parthenolide), 4MEPT (11S,11,13-dihydro,13-(4-methylpiperidin-1-yl)parthenolide) and MAPT (11S,11,13-dihydro,13-dimethylaminoparthenolide). Parthenolide and its derivatives inhibited cellular proliferation in a dose dependent manner between 2 and 10 μM with 70% inhibition at 10 μM in A549, 50% in H460, 40% in H-23 and 40% in H522 (FIGS. 2-5).

The subject of series [10] is lung cancer cell line A549. Nature of the series: MTS-PMS cellular proliferation assay. Conditions: Homo sapiens. Type of series: cell-based. How it is done: as §3
For series [11], the system named is lung cancer cell line H-23. Nature of the series: MTS-PMS cellular proliferation assay. The series is classed as cell-based. How it is done:
as §3

The test system of series [12] is lung cancer cell line H460. Nature of the series: MTS-PMS cellular proliferation assay. Type of series: cell-based. As to conditions: Homo sapiens, NCI-H460. How it is done:
as §3

The subject of series [13] is lung cancer cell line H522. The series can be described thus: MTS-PMS cellular proliferation assay. The series is classed as cell-based. As to conditions: Homo sapiens, NCI-H522. How it is done:
as §3

In series [14] the test system is normal hematopoietic stem cells. Nature of the series: Human-mouse xenograft: NOD/SCID engraftment of normal donor cells treated in vitro. Type of series: in vivo. Conditions: 7.5 micromolar in vitro for 12-18 hours, bone marrow analysed after 6-8 weeks (CD45). How it is done: as §2

The structures appear in SMILES notation.

Take `C=C1C(=O)O[C@@H]2[C@H]3O[C@]3(C)CC/C=C(\C)CC[C@@H]12` [Parthenolide]: the inhibition of proliferation result in series [1], in series [3] and in series [4] was “reduced proliferation” in each case. Moreover, the figures for the survival fraction in [2] (2Gy) and in [2] (6Gy) were 10% and “less than 1%”, respectively. In addition, the “survival rate of healthy human bone marrow cells” value in series [5] is “Eighty-five”. For the same compound, the concentration at 1 h in series [6] was about 200 nM. The Antileukemic activity in series [7] is recorded as 10 μM, 84%. Also, the “level of engraftment of treated AML cells in NOD/SCID mice” value in series [8] is “dramatically reduced”. In addition, the “reduction of cellular proliferation” value in series [9] worked out at 50%. In addition, the inhibition at 10 µM in [10] came out at 70%; in series [11], 40%; in series [12] it was 50%; in series [13], 40%. In addition, the “level of engraftment of treated normal cells in NOD/SCID mice” value in series [14] was “no reduction in engraftment”.
